Read-outs that look alike come from different tables or passages of the source.
What was measured:
[1] = biological target: T1, AR (h) (Homo sapiens, UniProt P10275, T878A); assay type: binding; conditions: 1.0E-06 M
T1 construct: AR (h) LNCaP cells [3H]methyltrienolone; host or cells: LNCaP cells (cytosol)
T1 sequence (P10275 1-920 T878A): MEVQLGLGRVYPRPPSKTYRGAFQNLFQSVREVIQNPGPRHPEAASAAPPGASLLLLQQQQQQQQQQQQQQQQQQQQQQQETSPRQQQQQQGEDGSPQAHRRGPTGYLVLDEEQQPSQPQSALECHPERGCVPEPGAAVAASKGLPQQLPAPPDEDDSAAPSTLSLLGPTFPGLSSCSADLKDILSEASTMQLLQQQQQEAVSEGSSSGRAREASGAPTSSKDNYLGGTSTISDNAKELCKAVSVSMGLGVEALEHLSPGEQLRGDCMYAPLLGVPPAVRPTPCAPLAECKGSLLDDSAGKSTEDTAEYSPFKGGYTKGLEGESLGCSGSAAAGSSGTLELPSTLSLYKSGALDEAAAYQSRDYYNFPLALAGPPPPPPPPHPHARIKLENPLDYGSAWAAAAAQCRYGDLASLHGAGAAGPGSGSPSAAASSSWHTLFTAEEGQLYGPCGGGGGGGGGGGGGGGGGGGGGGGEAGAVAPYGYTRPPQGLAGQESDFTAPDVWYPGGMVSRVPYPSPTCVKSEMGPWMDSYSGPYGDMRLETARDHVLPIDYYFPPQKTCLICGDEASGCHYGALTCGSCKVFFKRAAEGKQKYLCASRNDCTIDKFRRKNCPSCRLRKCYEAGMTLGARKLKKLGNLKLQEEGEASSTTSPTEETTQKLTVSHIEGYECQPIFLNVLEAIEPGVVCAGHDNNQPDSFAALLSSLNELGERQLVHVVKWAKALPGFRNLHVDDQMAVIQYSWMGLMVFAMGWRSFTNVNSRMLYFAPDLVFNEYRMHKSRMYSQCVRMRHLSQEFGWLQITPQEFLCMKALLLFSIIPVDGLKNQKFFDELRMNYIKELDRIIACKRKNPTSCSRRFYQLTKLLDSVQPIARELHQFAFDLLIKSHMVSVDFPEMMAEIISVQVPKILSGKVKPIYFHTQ

[2] = biological target: T2, α2A (h) (Homo sapiens, UniProt P08913); assay type: binding; conditions: 1.0E-06 M
T2 construct: host or cells: CHO cells
T2 sequence (P08913 1-465): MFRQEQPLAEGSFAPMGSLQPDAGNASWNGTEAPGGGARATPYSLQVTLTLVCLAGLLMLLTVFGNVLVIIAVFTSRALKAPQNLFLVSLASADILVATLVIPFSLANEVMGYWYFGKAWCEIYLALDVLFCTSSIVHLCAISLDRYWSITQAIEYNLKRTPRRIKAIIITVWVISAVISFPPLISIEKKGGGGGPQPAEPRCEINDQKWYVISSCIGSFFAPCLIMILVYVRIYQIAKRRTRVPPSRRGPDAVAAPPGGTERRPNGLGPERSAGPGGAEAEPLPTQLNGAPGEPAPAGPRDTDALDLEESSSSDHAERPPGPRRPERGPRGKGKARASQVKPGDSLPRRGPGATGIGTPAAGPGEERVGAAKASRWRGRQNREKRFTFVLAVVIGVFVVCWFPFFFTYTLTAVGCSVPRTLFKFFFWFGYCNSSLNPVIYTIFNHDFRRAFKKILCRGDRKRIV

[3] = biological target: T3, H4 (h) (Homo sapiens, UniProt Q9H3N8); assay type: binding; conditions: 1.0E-06 M
T3 construct: host or cells: HEK-293 cells

[4] = biological target: T4, CysLT1 (LTD4) (h) (Homo sapiens, UniProt Q9Y271); assay type: binding; conditions: 1.0E-06 M
T4 construct: host or cells: CHO cells
T4 sequence (Q9Y271 1-337): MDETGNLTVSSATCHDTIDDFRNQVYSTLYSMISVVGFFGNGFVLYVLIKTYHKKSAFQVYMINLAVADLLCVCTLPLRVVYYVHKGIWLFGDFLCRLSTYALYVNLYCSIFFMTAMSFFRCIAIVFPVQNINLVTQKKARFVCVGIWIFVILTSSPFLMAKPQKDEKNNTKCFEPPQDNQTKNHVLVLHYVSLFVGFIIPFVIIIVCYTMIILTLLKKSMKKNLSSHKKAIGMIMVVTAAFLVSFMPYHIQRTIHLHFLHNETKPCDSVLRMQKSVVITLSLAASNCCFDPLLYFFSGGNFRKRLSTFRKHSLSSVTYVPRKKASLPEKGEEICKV

[5] = biological target: sst4 (h) (Homo sapiens, UniProt P31391); assay type: binding; conditions: 1.0E-06 M
[6] = biological target: Ca2+ channel (L, diltiazem site) (benzothiazepines) (Rattus norvegicus, UniProt P22002); assay type: binding
[7] = biological target: CaMK2α (h) (Homo sapiens, UniProt Q9UQM7); assay: enzyme assay; assay type: biochemical; conditions: 1.0E-06 M
[8] = biological target: A2A (h) (Homo sapiens, UniProt P29274); conditions: 1.0E-06 M
[9] = biological target: TRPC6 (Homo sapiens, UniProt Q9Y210); assay: cell-based
[10] = biological target: 5-HT1B (Rattus norvegicus, UniProt P28564); assay: biochemical
Sequence of 5-HT1B (P28564 whole entry): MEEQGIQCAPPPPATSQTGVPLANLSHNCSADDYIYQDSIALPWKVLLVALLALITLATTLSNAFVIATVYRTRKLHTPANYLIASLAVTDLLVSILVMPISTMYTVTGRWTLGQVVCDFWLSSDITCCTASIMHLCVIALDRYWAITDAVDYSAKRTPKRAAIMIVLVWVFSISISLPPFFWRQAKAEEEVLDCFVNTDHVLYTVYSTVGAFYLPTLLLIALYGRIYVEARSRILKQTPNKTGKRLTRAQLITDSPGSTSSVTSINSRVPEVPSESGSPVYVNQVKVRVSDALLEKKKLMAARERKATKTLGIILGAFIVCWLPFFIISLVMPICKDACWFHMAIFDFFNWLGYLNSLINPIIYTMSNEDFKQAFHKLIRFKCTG

Sequence of sst4 (h) (P31391 whole entry): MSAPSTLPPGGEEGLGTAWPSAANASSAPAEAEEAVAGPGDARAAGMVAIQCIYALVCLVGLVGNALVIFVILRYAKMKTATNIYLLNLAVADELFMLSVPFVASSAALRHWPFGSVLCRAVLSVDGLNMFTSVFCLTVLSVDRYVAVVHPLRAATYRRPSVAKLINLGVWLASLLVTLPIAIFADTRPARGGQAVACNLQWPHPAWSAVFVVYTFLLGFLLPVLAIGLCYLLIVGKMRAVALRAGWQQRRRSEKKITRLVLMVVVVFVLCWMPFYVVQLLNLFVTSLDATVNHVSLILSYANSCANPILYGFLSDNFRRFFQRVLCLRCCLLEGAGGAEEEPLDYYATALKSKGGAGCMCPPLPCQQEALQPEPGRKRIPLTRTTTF
Sequence of A2A (h) (P29274 whole entry): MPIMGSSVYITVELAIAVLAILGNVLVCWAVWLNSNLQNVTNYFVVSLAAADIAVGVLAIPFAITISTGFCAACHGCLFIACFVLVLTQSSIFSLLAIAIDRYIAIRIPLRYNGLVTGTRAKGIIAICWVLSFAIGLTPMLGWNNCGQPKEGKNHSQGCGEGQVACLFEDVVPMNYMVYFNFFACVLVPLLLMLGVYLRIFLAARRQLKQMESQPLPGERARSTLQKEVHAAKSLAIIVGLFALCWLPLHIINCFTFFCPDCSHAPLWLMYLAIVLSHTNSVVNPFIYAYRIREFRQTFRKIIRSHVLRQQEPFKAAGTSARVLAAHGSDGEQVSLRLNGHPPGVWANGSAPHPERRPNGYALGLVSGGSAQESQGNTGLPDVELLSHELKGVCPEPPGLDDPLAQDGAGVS
T3 sequence (Q9H3N8 whole entry): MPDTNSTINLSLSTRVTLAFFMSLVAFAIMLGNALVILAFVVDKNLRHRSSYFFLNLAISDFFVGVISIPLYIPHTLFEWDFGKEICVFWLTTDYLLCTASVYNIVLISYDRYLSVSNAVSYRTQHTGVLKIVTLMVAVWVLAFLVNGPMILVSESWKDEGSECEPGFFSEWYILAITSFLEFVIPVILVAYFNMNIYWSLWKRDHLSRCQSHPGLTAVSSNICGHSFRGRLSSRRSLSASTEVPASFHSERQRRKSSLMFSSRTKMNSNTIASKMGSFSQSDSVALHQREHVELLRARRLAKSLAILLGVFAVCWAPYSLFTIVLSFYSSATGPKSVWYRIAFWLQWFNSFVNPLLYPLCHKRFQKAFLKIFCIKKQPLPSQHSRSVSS
Sequence of Ca2+ channel (L, diltiazem site) (benzothiazepines) (P22002 whole entry): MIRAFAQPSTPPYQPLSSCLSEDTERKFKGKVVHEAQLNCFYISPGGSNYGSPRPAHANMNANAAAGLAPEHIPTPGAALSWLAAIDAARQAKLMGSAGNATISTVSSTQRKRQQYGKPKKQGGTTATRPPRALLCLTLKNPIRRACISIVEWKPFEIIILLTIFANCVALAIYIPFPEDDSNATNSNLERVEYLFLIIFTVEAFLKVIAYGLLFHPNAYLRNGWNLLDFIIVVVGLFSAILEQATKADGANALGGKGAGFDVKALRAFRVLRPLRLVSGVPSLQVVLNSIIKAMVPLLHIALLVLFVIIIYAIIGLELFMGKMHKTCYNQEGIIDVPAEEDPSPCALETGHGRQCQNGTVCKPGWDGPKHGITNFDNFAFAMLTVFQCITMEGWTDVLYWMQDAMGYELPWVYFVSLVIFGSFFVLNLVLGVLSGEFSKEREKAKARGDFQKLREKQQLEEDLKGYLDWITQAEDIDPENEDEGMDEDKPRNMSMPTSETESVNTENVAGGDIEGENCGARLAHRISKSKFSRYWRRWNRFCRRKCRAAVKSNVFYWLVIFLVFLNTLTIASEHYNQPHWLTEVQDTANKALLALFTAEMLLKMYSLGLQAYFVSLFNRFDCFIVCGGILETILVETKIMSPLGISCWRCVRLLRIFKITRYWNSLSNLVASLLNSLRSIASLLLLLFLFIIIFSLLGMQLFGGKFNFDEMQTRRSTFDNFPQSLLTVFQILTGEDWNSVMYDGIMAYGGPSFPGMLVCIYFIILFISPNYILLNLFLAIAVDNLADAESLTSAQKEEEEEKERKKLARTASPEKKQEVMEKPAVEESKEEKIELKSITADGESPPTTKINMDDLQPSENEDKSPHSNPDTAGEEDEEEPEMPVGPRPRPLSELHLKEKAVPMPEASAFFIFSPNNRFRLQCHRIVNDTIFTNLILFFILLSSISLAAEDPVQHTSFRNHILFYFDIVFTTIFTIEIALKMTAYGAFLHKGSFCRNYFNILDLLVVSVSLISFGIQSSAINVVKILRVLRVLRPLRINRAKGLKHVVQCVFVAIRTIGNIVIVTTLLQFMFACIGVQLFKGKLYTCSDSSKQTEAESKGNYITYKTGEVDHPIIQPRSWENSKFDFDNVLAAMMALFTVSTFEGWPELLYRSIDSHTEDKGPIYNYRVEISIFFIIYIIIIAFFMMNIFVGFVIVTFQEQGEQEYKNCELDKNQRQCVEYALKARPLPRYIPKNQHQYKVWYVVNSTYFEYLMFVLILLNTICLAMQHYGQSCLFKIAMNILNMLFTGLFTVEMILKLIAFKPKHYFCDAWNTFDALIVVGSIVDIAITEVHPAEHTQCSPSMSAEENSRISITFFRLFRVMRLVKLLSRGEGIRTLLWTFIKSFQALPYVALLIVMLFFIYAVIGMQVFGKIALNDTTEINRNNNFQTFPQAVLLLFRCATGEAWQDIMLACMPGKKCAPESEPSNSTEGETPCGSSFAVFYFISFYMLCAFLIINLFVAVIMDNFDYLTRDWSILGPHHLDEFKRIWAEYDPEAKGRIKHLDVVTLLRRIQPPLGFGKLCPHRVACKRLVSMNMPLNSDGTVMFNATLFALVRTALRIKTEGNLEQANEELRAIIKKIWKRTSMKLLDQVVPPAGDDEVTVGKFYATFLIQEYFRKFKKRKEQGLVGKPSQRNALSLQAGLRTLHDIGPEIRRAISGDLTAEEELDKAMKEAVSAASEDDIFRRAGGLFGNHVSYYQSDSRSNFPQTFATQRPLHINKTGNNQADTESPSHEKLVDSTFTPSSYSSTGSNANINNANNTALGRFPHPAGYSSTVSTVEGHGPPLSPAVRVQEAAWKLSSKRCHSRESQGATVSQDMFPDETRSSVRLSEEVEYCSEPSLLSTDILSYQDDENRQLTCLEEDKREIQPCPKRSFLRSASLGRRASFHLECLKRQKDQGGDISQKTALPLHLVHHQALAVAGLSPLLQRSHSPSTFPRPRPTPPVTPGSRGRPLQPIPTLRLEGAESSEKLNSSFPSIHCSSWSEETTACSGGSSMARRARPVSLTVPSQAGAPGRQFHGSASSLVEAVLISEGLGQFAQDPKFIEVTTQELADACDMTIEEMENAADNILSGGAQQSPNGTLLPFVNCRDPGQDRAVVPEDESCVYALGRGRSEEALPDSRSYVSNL
Sequence of TRPC6 (Q9Y210 whole entry, species assumed): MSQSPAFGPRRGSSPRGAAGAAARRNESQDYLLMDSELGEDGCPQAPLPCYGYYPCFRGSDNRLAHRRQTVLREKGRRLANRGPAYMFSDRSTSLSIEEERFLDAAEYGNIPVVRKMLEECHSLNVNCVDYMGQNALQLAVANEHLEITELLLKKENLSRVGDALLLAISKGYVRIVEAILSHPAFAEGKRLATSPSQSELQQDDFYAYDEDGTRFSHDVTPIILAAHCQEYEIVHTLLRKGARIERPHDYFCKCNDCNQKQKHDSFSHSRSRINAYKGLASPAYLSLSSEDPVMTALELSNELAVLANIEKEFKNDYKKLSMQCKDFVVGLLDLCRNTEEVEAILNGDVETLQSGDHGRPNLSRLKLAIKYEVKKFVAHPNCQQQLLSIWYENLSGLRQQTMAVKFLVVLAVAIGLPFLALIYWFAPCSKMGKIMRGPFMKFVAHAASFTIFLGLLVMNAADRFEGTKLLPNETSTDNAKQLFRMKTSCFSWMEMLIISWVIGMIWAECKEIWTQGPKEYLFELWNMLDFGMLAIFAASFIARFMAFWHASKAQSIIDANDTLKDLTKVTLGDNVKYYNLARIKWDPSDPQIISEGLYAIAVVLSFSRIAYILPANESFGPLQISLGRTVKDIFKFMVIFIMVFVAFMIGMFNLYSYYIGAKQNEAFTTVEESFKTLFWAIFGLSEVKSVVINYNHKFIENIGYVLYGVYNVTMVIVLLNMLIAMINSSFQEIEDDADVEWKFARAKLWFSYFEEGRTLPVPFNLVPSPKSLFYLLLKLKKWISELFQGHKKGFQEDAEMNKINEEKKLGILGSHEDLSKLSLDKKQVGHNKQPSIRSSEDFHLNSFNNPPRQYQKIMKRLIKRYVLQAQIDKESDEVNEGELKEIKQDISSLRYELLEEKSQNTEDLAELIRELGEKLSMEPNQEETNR

Cn1c(=O)n(CCCO)c(=O)c2c1nc(Oc1cccc(Cl)c1)n2Cc1ccc(Cl)cc1 [HC-070]
inhibition at 1 µM ([1]; read-out: % Inhibition 1st): 11.1% | inhibition at 1 µM ([1]; read-out: % Inhibition 2nd): 3.2% | inhibition at 1 µM ([1]; read-out: % Inhibition Mean): 7.1%

Cn1c(=O)n(CCCO)c(=O)c2c1nc(Oc1cccc(OC(F)(F)F)c1)n2Cc1ccc(Cl)cc1 [HC-608]
inhibition at 1 µM ([2]; read-out: % Inhibition 1st): -14.9% | inhibition at 1 µM ([2]; read-out: % Inhibition 2nd): -3.7% | inhibition at 1 µM ([2]; read-out: % Inhibition Mean): -9.3% | inhibition at 1 µM ([3]; read-out: % Inhibition 1st): -13.6% | inhibition at 1 µM ([3]; read-out: % Inhibition 2nd): -1.9% | inhibition at 1 µM ([3]; read-out: % Inhibition Mean): -7.8% | inhibition at 1 µM ([4]; read-out: % Inhibition 1st): 13.2% | inhibition at 1 µM ([4]; read-out: % Inhibition 2nd): 3.4% | inhibition at 1 µM ([4]; read-out: % Inhibition Mean): 8.3% | inhibition at 1 µM ([5]; read-out: % Inhibition 1st): -27% | inhibition at 1 µM ([5]; read-out: % Inhibition 2nd): 9.5% | inhibition at 1 µM ([5]; read-out: % Inhibition Mean): -8.8% | % Inhibition 1st [6]: -1.9% | % Inhibition 2nd [6]: 8.8% | % Inhibition Mean [6]: 3.4% | inhibition at 1 µM ([7]; read-out: % Inhibition 1st): -4% | inhibition at 1 µM ([7]; read-out: % Inhibition 2nd): 2.8% | inhibition at 1 µM ([7]; read-out: % Inhibition Mean): -0.6% | % Inhibition 1st [8]: 20.8% | % Inhibition 2nd [8]: 31.1% | % Inhibition Mean [8]: 25.9% | IC50 [9]: > 1640 nM | inhibition at 1 µM ([10]; read-out: % Inhibition 1st): -11% | inhibition at 1 µM ([10]; read-out: % Inhibition 2nd): -9.4% | inhibition at 1 µM ([10]; read-out: % Inhibition Mean): -10.2%

Reference: paper PMC5791972 (PLoS ONE, 2018)
